Reference: patent US9302999B2, “Substituted triazoles as herbicides” (E. I. DU PONT DE NEMOURS AND COMPANY, priority 2012, dated 2016)

Experiments:
[1] = tested on: Barnyardgrass; assay: Test C postemergence: barnyardgrass; type: in vivo, Echinochloa crus-galli
Text: At the same time, plants selected from these crop and weed species and also barley (winter barley, Hordeum vulgare), canarygrass (Phalaris minor), chickweed (common chickweed, Stellaria media) windgrass (Apera spica-venti) and deadnettle (henbit deadnettle, Lamium amplexicaule) were planted in pots containing Redi-Earth® planting medium (Scotts Company, 14111 Scottslawn Road, Marysville, Ohio 43041) comprising spaghnum peat moss, vermiculite, wetting agent and starter nutrients and treated with postemergence applications of test chemicals formulated in the same manner. Plants ranged in height from 2 to 18 cm (1- to 4-leaf stage) for postemergence treatments.
(§1) Treated plants and controls were maintained in a greenhouse for 13 to 15 days, after which time all species were compared to controls and visually evaluated. Plant response ratings, summarized in Table C, are based on a scale of 0 to 100 where 0 is no effect and 100 is complete control. A dash (-) response means no test result.

[2] = tested on: crabgrass, large (large crabgrass, Digitaria sanguinalis); assay: Test F pre-/postemergence: crabgrass, large; type: in vivo; conditions: Preemergence
Text: Seeds of plant species selected from corn (Zea mays), soybean (Glycine max), velvetleaf (Abutilon theophrasti), lambsquarters (Chenopodium album), poinsettia, wild (wild poinsettia, Euphorbia heterophylla), pigweed, palmer (palmer pigweed, Amaranthus palmeri), waterhemp (common waterhemp, Amaranthus rudis), surinam grass (Brachiaria decumbens), crabgrass, Brazil (Brazilian crabgrass, Digitaria horizontalis), panicum, fall (fall panicum Panicum dichotomiflorum), crabgrass, large (large crabgrass, Digitaria sanguinalis), foxtail, giant (giant foxtail, Setaria faberii), foxtail, green (green foxtail Setaria viridis), goosegrass (Eleusine indica), ragweed (common ragweed, Ambrosia elatior), barnyardgrass (Echinochloa crus-galli), sandbur (southern sandbur, Cenchrus echinatus), arrowleaf sida (Sida rhombifolia), ryegrass, Italian (Italian ryegrass, Lolium multiflorum), dayflower, VA (Virginia (VA) dayflower, Commelina virginica), field bindweed (Convolvulus arvensis), cocklebur (common cocklebur, Xanthium strumarium), morningglory (Ipomoea coccinea), nightshade (eastern black nightshade, Solanum ptycanthum), kochia (Kochia scoparia), nutsedge, yellow (yellow nutsedge, Cyperus esculentus), johnsongrass (Sorghum halepense), smartweed (ladysthumb smartweed, Polygonum persicaria), and beggarticks (hairy beggarticks, Bidens pilosa), were planted into a silt loam soil and treated preemergence with test chemicals formulated in a non-phytotoxic solvent mixture which included a surfactant. At the same time, plants selected from these crop and weed species and also pigweed (Amaranthus retroflexus), waterhemp_RES1 (ALS/Triazine resistant common waterhemp, Amaranthus rudis) and waterhemp_RES2 (ALS/HPPD resistant common waterhemp, Amaranthus rudis) were planted in pots containing a planting medium comprising spaghnum peat moss, vermiculite, wetting agent and starter nutrients treated with postemergence applications of some of the test chemicals formulated in the same manner. Plants ranged in height from 2 to 18 cm for postemergence treatments (1- to 4-leaf stage).
as §1, with “14” for “13”, “21” for “15”, “E,” for “C,”

[3] = tested on: wheat, winter (winter wheat, Triticum aestivum); assay: Test D pre-/postemergence: wheat, winter; type: in vivo
How it was run: (§2)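 Pre- and postemergence herbicide screen. Soil for pre: silt loam; post medium: peat moss, vermiculite, wetting agent, starter nutrients. Plant stage at post: 1- to 4-leaf. Readout: visual % control, 14–21 days.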

[4] = tested on: bromegrass, downy (downy bromegrass, Bromus tectorum); assay: Test D pre-/postemergence: bromegrass, downy; type: in vivo
How it was run: as §2

[5] = 31 g ai/ha, scale 0 to 100 (0 no effect, 100 complete control)
[6] = 62 g ai/ha, scale 0 to 100 (0 no effect, 100 complete control)
[7] = 16 g ai/ha, scale 0 to 100, 0 no effect, 100 complete control
[8] = 31 g ai/ha, scale 0 to 100, 0 no effect, 100 complete control
[9] = Postemergence, 31 g ai/ha, scale 0 to 100 (0 no effect, 100 complete control)
[10] = Postemergence, 62 g ai/ha, scale 0 to 100 (0 no effect, 100 complete control)
[11] = Postemergence, 125 g ai/ha, scale 0 to 100, 0 no effect, 100 complete control
[12] = Postemergence, 16 g ai/ha, scale 0 to 100
[13] = Preemergence, 16 g ai/ha, scale 0 to 100, 0 no effect, 100 complete control
[14] = Preemergence, 31 g ai/ha, scale 0 to 100, 0 no effect, 100 complete control
[15] = Preemergence, 62 g ai/ha, scale 0 to 100
[16] = Preemergence, 125 g ai/ha, scale 0 to 100

Structure (SMILES): CCc1nn(-c2ccc(F)cc2)nc1Cc1ccnc(C(F)(F)F)c1 [Compound 154]
- Plant response rating, Barnyardgrass [1, 5]: 15
- Plant response rating, Barnyardgrass [1, 6]: 25
- Plant response rating, Barnyardgrass ([1]; 250 g ai/ha, scale 0 to 100): 40
- Plant response rating, Crabgrass, Large [2, 7]: 50
- Plant response rating, Crabgrass, Large [2, 8]: 98
- Plant response rating, Crabgrass, Large ([2]; 62 g ai/ha, scale 0 to 100): 100
- Plant response rating, Crabgrass, Large ([2]; 125 g ai/ha, scale 0 to 100): 100
- Plant response rating, Crabgrass, Large ([2]; 250 g ai/ha, scale 0 to 100): 100

Structure (SMILES): CCc1nn(-c2ccc(C(F)(F)F)cc2)nc1Cc1ccnc(C(F)(F)F)c1 [Compound 155]
- Plant response rating, Barnyardgrass [1, 5]: 25
- Plant response rating, Barnyardgrass [1, 6]: 35
- Plant response rating, Barnyardgrass ([1]; 250 g ai/ha, scale 0 to 100): 75
- Plant response rating: Wheat, Winter [3, 9]: 10
- Plant response rating: Wheat, Winter [3, 10]: 15
- Plant response rating: Wheat, Winter [3, 11]: 25
- Plant response rating, Wheat, Winter [3, 12]: 5
- Plant response rating, Wheat, Winter [3, 13]: 0
- Plant response rating, Wheat, Winter [3, 14]: 0
- Plant response rating, Wheat, Winter [3, 15]: 5
- Plant response rating, Wheat, Winter [3, 16]: 5
- Plant response rating, Crabgrass, Large ([2]; 62 g ai/ha, scale 0 to 100): 100
- Plant response rating, Crabgrass, Large ([2]; 125 g ai/ha, scale 0 to 100): 100
- Plant response rating, Crabgrass, Large ([2]; 250 g ai/ha, scale 0 to 100): 100
- Plant response rating: Bromegrass, Downy [4, 9]: 15
- Plant response rating: Bromegrass, Downy [4, 10]: 35
- Plant response rating: Bromegrass, Downy [4, 11]: 55
- Plant response rating, Bromegrass, Downy [4, 12]: 5
- Plant response rating, Bromegrass, Downy [4, 13]: 0
- Plant response rating, Bromegrass, Downy [4, 14]: 5
- Plant response rating, Bromegrass, Downy [4, 15]: 10
- Plant response rating, Bromegrass, Downy [4, 16]: 35

Structure (SMILES): Cc1nn(-c2ccc(F)c(C(F)(F)F)c2)nc1Cc1ccnc(C(F)(F)F)c1 [Compound 156]
- Plant response rating, Barnyardgrass [1, 5]: 20
- Plant response rating, Barnyardgrass [1, 6]: 30
- Plant response rating, Barnyardgrass ([1]; 250 g ai/ha, scale 0 to 100): 55
- Plant response rating: Wheat, Winter [3, 9]: 15
- Plant response rating: Wheat, Winter [3, 10]: 15
- Plant response rating: Wheat, Winter [3, 11]: 20
- Plant response rating, Wheat, Winter [3, 12]: 10
- Plant response rating, Wheat, Winter [3, 13]: 0
- Plant response rating, Wheat, Winter [3, 14]: 0
- Plant response rating, Wheat, Winter [3, 15]: 0
- Plant response rating, Wheat, Winter [3, 16]: 5
- Plant response rating: Bromegrass, Downy [4, 9]: 10
- Plant response rating: Bromegrass, Downy [4, 10]: 15
- Plant response rating: Bromegrass, Downy [4, 11]: 35
- Plant response rating, Bromegrass, Downy [4, 12]: 10
- Plant response rating, Bromegrass, Downy [4, 13]: 0
- Plant response rating, Bromegrass, Downy [4, 14]: 5
- Plant response rating, Bromegrass, Downy [4, 15]: 20
- Plant response rating, Bromegrass, Downy [4, 16]: 95

Structure (SMILES): FCc1nn(-c2ccc(F)cc2)nc1Oc1ccnc(C(F)(F)F)c1 [Compound 160]
- Plant response rating, Barnyardgrass [1, 5]: 20
- Plant response rating, Barnyardgrass [1, 6]: 30

Structure (SMILES): CCOc1nn(-c2ccc(C(F)(F)F)cc2)nc1Cc1ccnc(C(F)(F)F)c1 [Compound 164, 4-[[5-ethoxy-2-[4-(trifluoromethyl)phenyl]-2H-1,2,3-triazol-4-yl]methyl]-2-(trifluoromethyl)pyridine]
- Plant response rating, Barnyardgrass [1, 5]: 5
- Plant response rating, Barnyardgrass [1, 6]: 10
- Plant response rating, Barnyardgrass ([1]; 250 g ai/ha, scale 0 to 100): 10

Structure (SMILES): CCCc1nn(-c2ccc(F)cc2)nc1Oc1ccnc(C(F)(F)F)c1 [Compound 168]
- Plant response rating, Barnyardgrass [1, 5]: 40
- Plant response rating, Barnyardgrass [1, 6]: 75
- Plant response rating, Barnyardgrass ([1]; 250 g ai/ha, scale 0 to 100): 95

Structure (SMILES): CCc1nn(-c2ccc(C(F)(F)F)cc2)nc1Oc1ccnc(C(F)(F)F)c1 [Compound 169]
- Plant response rating, Barnyardgrass [1, 5]: 15
- Plant response rating, Barnyardgrass [1, 6]: 25
- Plant response rating, Barnyardgrass ([1]; 250 g ai/ha, scale 0 to 100): 85
- Plant response rating, Crabgrass, Large [2, 7]: 98
- Plant response rating, Crabgrass, Large [2, 8]: 98
- Plant response rating, Crabgrass, Large ([2]; 62 g ai/ha, scale 0 to 100): 100
- Plant response rating, Crabgrass, Large ([2]; 125 g ai/ha, scale 0 to 100): 100
- Plant response rating, Crabgrass, Large ([2]; 250 g ai/ha, scale 0 to 100): 100
